Experimental data taken from patent US7855228B2, “Antibiotics targeting MreB” (The Board of Trustees of the Leland Stamford Junior …, priority 2005, dated 2010).
Converted amounts (≈) assume the structure as drawn. Where two headings read alike, the source gives them in different places.

Experiments:
[1] = system: E. coli K-12 strain SH3210; test: Anucleate cell blue assay; type: cell-based
Protocol: Anucleate cell blue assay. The anucleate cell blue assay was carried out as reported previously. Briefly, E. coli K-12 strain SH3210 (ΔtrpE5 his λ pXX747) was grown in a P medium containing 1% Polypepton and 0.5% NaCl (pH 7). Paper disks (φ 8 mm) each soaked with 20 μl of a sample solution were placed on P medium agar plates (1.5% agar) containing 10^4 cells/ml of SH3210 and 40 μg/ml of 5-bromo-4-chloro-3-indolyl β-D-galactoside. The plates were incubated at 42° C. for 24 h, and the development of a blue color and the growth inhibitory zone around the paper disks were evaluated.
Since 1 had originally been found through screening by an anucleate cell blue assay, the effect of each compound was first examined by this assay.

[2] = system: E. coli MG1655; test: Determination of minimum inhibitory concentration (MIC); type: cell-based; conditions: Escherichia coli, read-out: MIC E. coli
Protocol: (§1) Determination of minimum inhibitory concentration (MIC). MICs were also determined on Mueller Hinton agar plates (0.2% beef extract, 1.75% acid digest of casein, 0.15% soluble starch, 1.5% agar, pH 7.3).
(§2) Determination of MIC Minimal inhibitory concentrations (MICs) were determined using a standard 2-fold serial dilution format on L agar plates. Ten microliters of stationary culture diluted in 0.85% NaCl to 10^6 cells/ml were spotted on per plate. […] MICs were also determined on Mueller Hinton agar plates (0.2% beef extract, 1.75% acid digest of casein, 0.15% soluble starch, 1.5% agar, pH 7.3).

[3] = system: P. putida NBRC14164; test: as above; type: cell-based, Pseudomonas putida; conditions: Pseudomonas putida, read-out: MIC P. putida
Protocol: as §1, §2

[4] = system: S. typhimurium NBRC13245; test: as above; type: cell-based, Salmonella typhimurium; conditions: Salmonella enterica, read-out: MIC S. typhimurium
Protocol: as §1, §2

[5] = system: B. subtilis 168; test: as above; type: cell-based, Bacillus subtilis; conditions: read-out: MIC B. subtilis
Protocol: as §1, §2

[6] = system: S. aureus subsp. aureus NBRC15035; test: as above; type: cell-based, Staphylococcus aureus; conditions: Staphylococcus aureus, read-out: MIC S. aureus
Protocol: as §1, §2

[7] = system: E. coli MG1655; test: Microscopic observation of cell shape; type: cell-based
Protocol: Microscopic observation. E. coli K-12 strain MG1655 (F^− λ^−) was grown in Lennox broth containing 1% Polypepton, 0.5% yeast extract, 0.5% NaCl, and 0.1% glucose (pH 7.2). Cells spread on a slide glass were treated with methanol for 5 min and covered with poly-L-lysine. The fixed cells were observed by the differential interference contrast system through an Axioskop 2 microscope (Carl Zeiss Co., Ltd., Oberkochen, Germany). To observe the anucleate cells, cells were stained with a 4′,6-diamidino-2-phenylindole (DAPI) solution (5 μg/ml in saline) and then observed by the fluorescence phase-contrast combined method.
The effect of each compound on E. coli cell morphology was next examined.

[8] = MG1655, Example 2, methods as in Example 1
[9] = NBRC14164, Example 2, methods as in Example 1
[10] = Example 2, methods as in Example 1
[11] = Bacillus subtilis, 168, Example 2, methods as in Example 1
[12] = NBRC15035, Example 2, methods as in Example 1

Compound | Growth inhibitory zone and blue zone in the anucleate cell blue assay (in words) [1] | MIC [2, 8] [µg/mL] | MIC ([2]; MG1655, Table 1, E. coli MG1655) [µg/mL] | MIC [3, 9] [µg/mL] | MIC ([3]; NBRC14164, Table 1, NBRC14164) [µg/mL] | MIC [4, 10] [µg/mL] | MIC ([4]; Table 1, NBRC13245) [µg/mL] | MIC [5, 11] [µg/mL] | MIC ([5]; Bacillus subtilis, 168, Table 1, B. subtilis 168) [µg/mL] | MIC [6, 12] [µg/mL] | MIC ([6]; NBRC15035, Table 1, NBRC15035) [µg/mL] | Effect on E. coli cell morphology (in words) ([7]; 3×MIC or 300 μg/ml, 30° C., 16 hrs) | Shape ([7]; E. coli MG1655 treated at 300 μg/ml (**), 30° C., 16 h) | Shape [7, 10]
CCCCCCCSC(=N)N [Compound 5, S-heptylisothiourea] | a growth inhibitory zone as well as a blue zone | 200 (≈ 1150 µM) | > 100 | 200 (≈ 1150 µM) | > 100 | > 200 | > 100 | > 200 | > 100 | > 200 | > 100 | somewhat elongated cells, but not spherical cells | Rod** | Rod
N=C(N)SCc1ccccc1C(F)(F)F [Compound 2-CF3] | – | > 100 | – | > 100 | – | > 100 | – | > 100 | – | > 100 | – | – | – | Sphere
N=C(N)SCc1c(Cl)cccc1Cl [2,6-Cl] | – | 12.5 (≈ 53.2 µM) | – | > 100 | – | 25 (≈ 106 µM) | – | > 100 | – | > 100 | – | – | – | Sphere
N=C(N)SCc1ccccc1Br [Compound 2-Br] | – | 50 (≈ 204 µM) | – | > 100 | – | 50 (≈ 204 µM) | – | > 100 | – | > 100 | – | – | – | Sphere
N=C(N)SCc1ccc(Cl)cc1Cl [2,4-Cl, S-(2,4-Dichloro-benzyl)-isothiourea] | – | 1.56 (≈ 6.63 µM) | – | > 100 | – | 1.56 (≈ 6.63 µM) | – | > 100 | – | > 100 | – | – | – | Sphere
N=C(N)SCc1ccc(F)c(F)c1 [3,4-F] | – | 12.5 (≈ 61.8 µM) | – | > 100 | – | 25 (≈ 124 µM) | – | 25 (≈ 124 µM) | – | 100 (≈ 494 µM) | – | – | – | Sphere
N=C(N)SCc1cccc(F)c1 [Compound 3-F] | – | 50 (≈ 271 µM) | – | > 100 | – | > 100 | – | 50 (≈ 271 µM) | – | > 100 | – | – | – | Sphere
CC1CN(c2c(F)c(N)c3c(=O)c(C(=O)O)cn(C4CC4)c3c2F)CC(C)N1 (stereo not shown) [SPFX, reference compound] | – | 0.0244 (≈ 0.0622 µM) | – | 0.391 (≈ 0.996 µM) | – | 0.0488 (≈ 0.124 µM) | – | 0.0244 (≈ 0.0622 µM) | – | 0.0488 (≈ 0.124 µM) | – | – | – | –
N=C(N)SCc1cccc(Cl)c1Cl [2,3-Cl] | – | 25 (≈ 106 µM) | – | > 100 | – | 25 (≈ 106 µM) | – | 100 (≈ 425 µM) | – | 25 (≈ 106 µM) | – | – | – | Sphere
N=C(N)SCc1cccc(C(F)(F)F)c1 [Compound 3-CF3] | – | > 100 | – | > 100 | – | > 100 | – | > 100 | – | > 100 | – | – | – | Sphere
COc1ccc(CSC(=N)N)cc1 [Compound 4-MeO] | – | > 100 | – | > 100 | – | > 100 | – | > 100 | – | > 100 | – | – | – | Sphere
I.Nc1nc(-c2ccccc2)cs1 [TZ, reference compound] | – | > 100 | – | > 100 | – | > 100 | – | > 100 | – | > 100 | – | – | – | Rod
N=C(N)SCc1c(F)c(F)c(F)c(F)c1F [pentaF] | – | > 100 | – | > 100 | – | > 100 | – | > 100 | – | > 100 | – | – | – | Sphere
N=C(N)SCc1ccc(I)cc1 [Compound 4-I, S-(4-Iodo-benzyl)-isothiourea] | – | 12.5 (≈ 42.8 µM) | – | > 100 | – | 25 (≈ 85.6 µM) | – | > 100 | – | > 100 | – | – | – | Sphere
N=C(N)SCc1ccc(Cl)nc1 [4-Cl Pyr] | – | 100 (≈ 496 µM) | – | > 100 | – | > 100 | – | > 100 | – | > 100 | – | – | – | Sphere
N=C(N)SCc1ccccc1F [Compound 2-F] | – | 25 (≈ 136 µM) | – | > 100 | – | 25 (≈ 136 µM) | – | > 100 | – | > 100 | – | – | – | Sphere
